In the kinase profiling compilation of Christmann-Franck et al. (2016) one finds Ki data, which are given here for 96 compounds.

This assay deals with SGK1 (human) (UniProt O00141). The assay can be described thus: Flashplate.
Chain of SGK1 (human) (O00141 whole entry, looked up): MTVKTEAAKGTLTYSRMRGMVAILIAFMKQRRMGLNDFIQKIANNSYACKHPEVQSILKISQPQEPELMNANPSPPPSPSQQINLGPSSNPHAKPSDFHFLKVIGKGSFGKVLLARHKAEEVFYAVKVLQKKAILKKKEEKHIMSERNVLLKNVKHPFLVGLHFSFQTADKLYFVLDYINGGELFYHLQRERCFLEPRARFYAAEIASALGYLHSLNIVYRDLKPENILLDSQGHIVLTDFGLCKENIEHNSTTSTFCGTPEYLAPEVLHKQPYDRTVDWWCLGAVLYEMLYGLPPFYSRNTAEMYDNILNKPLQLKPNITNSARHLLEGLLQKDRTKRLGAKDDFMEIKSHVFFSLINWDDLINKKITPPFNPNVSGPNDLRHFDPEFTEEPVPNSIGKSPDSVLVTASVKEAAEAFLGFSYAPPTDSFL

`Cc1cn2c(-c3ccnc(NCC(C)(C)CO)n3)c(-c3ccc(F)cc3F)nc2c(C)n1`: the Ki (usually the equilibrium dissociation constant of an inhibitor or competing ligand from its target) is more than 10 µM. To `NS(=O)(=O)c1cccc(Nc2ncc3ccn(Cc4ccccc4)c3n2)c1` belongs 3.98 µM. To `N[C@H](COc1cncc(-c2ccc(F)cc2)c1)Cc1c[nH]c2ccccc12` belongs more than 10 µM; to `Cc1n[nH]c2ncc(C#N)c(-c3ccccc3)c12`, 3.98 µM. Consider `COc1cc(Nc2ncc(F)c(Nc3ccc4c(n3)NC(=O)C(C)(C)O4)n2)cc(OC)c1OC`, for which the inhibitory constant (Ki) was more than 7.94 µM. `Cc1nc(N)sc1-c1ccnc(Nc2ccc(N3CCOCC3)cc2)n1`: the Ki was 0.251 µM.

Turning to `CS(=O)(=O)Nc1cc2c(cc1Cl)NC(=O)Nc1cnc(C#N)c(n1)OCCCCCO2`, the Ki is more than 10 µM. To `CCCOc1cccc([C@@H](C)NC(=O)c2ccc(-c3ccncc3)cc2)c1` belongs 3.98 µM; to `N[C@H](COc1cncc(/C=C/c2ccncc2)c1)Cc1ccccc1`, more than 10 µM; to `CC1=NN(c2ccc(Cl)c(Cl)c2)C(=O)/C1=C\c1c(C)c(C#N)c2nc3ccccc3n2c1O`, more than 10 µM. In turn, `Nc1n[nH]c2cccc(-c3ccc(NC(=O)Nc4cc(C(=O)O)ccc4F)cc3)c12` yielded a Ki of 0.398 µM. In turn, `CCc1nc(-c2cccc(C)c2)c(-c2ccnc(NC(=O)c3ccccc3)c2)s1` displayed a Ki of more than 10 µM. `O=C(NCCCCCCNC(=O)NCc1cccnc1)NCc1cccnc1` had a Ki of more than 10 µM.

For `CN(C)C(=O)c1c(-c2ccc3[nH]ncc3c2)nnn1Cc1ccccc1`, the Ki was 2 µM. With `O=C(NCc1ccc(Cl)cc1)Nc1cccc2[nH]ncc12` the figure was more than 10 µM; with `NC(=O)c1c(OCc2c(F)cc(Br)cc2F)nsc1NC(=O)NCCCCN1CCCC1`, more than 10 µM; with `Cc1cccc(NC(=O)Nc2ccc(-c3cncc4c3c(N)nn4C)cc2)c1`, more than 7.94 µM. With `Cn1c(NC[C@@H](N)Cc2ccccc2)nc(-c2ccncc2)c(-c2ccc3ccccc3c2)c1=O` the figure was more than 7.94 µM; with `COc1ccc2c(NC(=O)Nc3cc(C(F)(F)F)ccn3)ccnc2c1`, more than 10 µM.

Regarding `CC(C)(CO)c1nnc2ccc(-c3c(-c4ccc(F)cc4F)nc4occn34)nn12`, the Ki was more than 10 µM. With `N#Cc1ncc2nc1OCCCCCOc1cc(CCCO)c(Cl)cc1NC(=O)N2` the figure was more than 10 µM; with `Cc1nn(-c2ccccc2)c2c1c(=O)c1cc(Cl)ccc1n2O`, more than 10 µM. Take `Oc1ccc(Nc2[nH]nc(-c3ccc(O)cc3)c2-c2ccc(O)cc2)cc1`: the Ki came to 0.1 µM. As to `O=c1c(NCc2ccc(Cl)c(Cl)c2)c(Nc2ccncc2)c1=O`, the inhibition constant (Ki) was found to be 0.501 µM. To `NC(=O)c1cc(-c2ccnc(N)n2)[nH]c1-c1ccc(Cl)cc1Cl` belongs 1.58 µM; to `c1ccc(Nc2nc(-c3ccc4[nH]ncc4c3)cs2)cc1`, 2.51 µM.

`Cc1cccc(NC(=O)Nc2ccc(-c3csc4c(-c5cnn(C[C@H](C)O)c5)cnc(N)c34)cc2)c1` came in with a Ki of more than 10 µM.

In the case of `NNc1cc(N2CCOCC2)nc(OCCc2ccccn2)n1`, the Ki was more than 10 µM. `Cc1ccc(F)c(-c2ccc3nnc(N)n3c2)c1` gave a Ki of more than 10 µM. `CCN(CC)C(=O)Nc1ccc2nc(-c3ccco3)c(-c3ccco3)nc2c1`: the Ki was more than 10 µM. With `Cc1cccc(NC(=O)Nc2ccc(NC(=O)c3csc4ncnc(N)c34)cc2)c1` the figure was 6.31 µM; with `C[C@@H](NC(=O)c1ccc(-c2ccncc2)cc1)c1ccccc1`, 2 µM. With `NC(=O)c1cc(-c2cccc(N)c2)cc2cccnc12` the figure was more than 10 µM; with `Cc1cc2nnc(SCc3cn4ccccc4n3)n2c2ccccc12`, more than 10 µM; with `Cc1c(C)n(Cc2ccccc2)c2ccc(C(=O)Nc3nc[nH]n3)cc12`, more than 10 µM. With `O=C1NCCc2[nH]c(-c3ccnc(-c4ccccc4F)c3)cc21` the figure was more than 10 µM; with `NCCCOc1cc2c(c(-c3ccc(Nc4nc5ccc(Cl)cc5o4)cc3)c1)CNC2=O`, 5.01 µM; with `Cc1cc(OC[C@@H]2CC[C@H](C(=O)O)C2)c(NC(=O)Nc2cnc(C#N)cn2)cc1Cl`, 6.31 µM. In the case of `NC(=O)c1cc(Cl)cc2[nH]c(-c3ccc(C4CCCNC4)cc3F)nc12` (stereo unspecified), the Ki was more than 10 µM. For the compound `O=c1[nH]c2sc3c(c2c2nc(-c4cccnc4)nn12)CCCC3`, the Ki was more than 10 µM.

For `Cc1cc(C)cc(NC(=O)Nc2ccc(-c3cccc4snc(N)c34)cc2)c1`, the Ki was more than 10 µM. The compound `COc1cccc([C@@H](C)NC(=O)c2cnc(-c3ccncc3)s2)c1` displayed a Ki of 0.501 µM. With `O=C(Nc1cccc(N2CCOCC2)n1)Nc1ccnc2c(C(F)(F)F)cccc12` the figure was more than 10 µM; with `CNC(=O)/C=C/c1cnc(N)c2c(-c3ccc4sc(C)nc4c3)csc12`, more than 10 µM; with `Cc1cccc(NC(=O)Nc2ccc(-c3csc4nc(N)nc(N)c34)cc2)c1`, more than 10 µM. To `O=C(NCc1ccccc1)c1ccc(-c2ccncc2)cc1` belongs 3.16 µM. To `O=C(Nc1cccc(C(F)(F)F)n1)Nc1ccnc2c(F)cccc12` belongs more than 10 µM. On to `Cc1c(Cl)c(N2CCC(CN)C2)nc2[nH]cc(C(=O)O)c(=O)c12` (stereo unspecified), for which the Ki was more than 10 µM. With `COc1cc(CN2CCCCC2)c(Cl)cc1NC(=O)Nc1cnc(C#N)cn1` the figure was more than 10 µM.

Take `C[C@H](N)COc1cnc(Cl)c(/C=C/c2ccncc2)c1`: the Ki came to 5.01 µM. As for `Cc1ccc(Nc2nc3ccc([N+](=O)[O-])cc3[nH]2)nc1`, the Ki was 0.794 µM. To `Clc1cc2nn[nH]c2cc1Cl` belongs more than 10 µM; to `CC1(C)CC(=O)C2=C(C1)Nc1cc(Cl)ccc1S2`, more than 10 µM. To `Cc1n[nH]c2c1C(c1ccccc1I)C(C#N)=C(N)O2` (stereo unspecified) belongs more than 10 µM. To `CCOc1nc(C(=O)NCc2ccc(S(C)(=O)=O)cc2)cc(N)c1Cl` belongs more than 10 µM; to `CNS(=O)(=O)c1ccccc1Nc1nc(Nc2cc(OC)c(OC)c(OC)c2)ncc1Cl`, more than 5.01 µM. On to `COc1cccc([C@@H](C)NC(=O)c2ccc(-c3ccncc3F)cc2OC)c1`, for which the Ki amounted to 0.631 µM. With `Cc1cccc(NC(=O)Cc2ccc(-c3cccc4[nH]nc(N)c34)cc2)c1` the figure was 0.794 µM; with `Cc1n[nH]c2ccc(-c3cncc(OC[C@@H](N)Cc4cccc(OC(F)(F)F)c4)c3)cc12`, 0.316 µM. The compound `Nc1ncnc(Nc2cc(CNC(=O)C(F)(F)F)c(O)c(-c3ccc(Cl)cc3)c2)n1` gave a Ki of more than 10 µM. As to `Cc1ccc(NC(=O)Nc2ccc(-c3coc4ncnc(N)c34)cc2)cc1`, the Ki is more than 10 µM. For the compound `Cc1ccc(-c2cnc(N)c3c(-c4ccc(NC(=O)Nc5cccc(F)c5)cc4)csc23)cn1`, the Ki was more than 10 µM. With `Cc1csc(NC(=O)c2sc3nc(-c4ccncc4)ccc3c2N)n1` the figure was more than 10 µM; with `CNC(=O)C(C)n1cc(-c2cnc(N)c3c(-c4ccc(NC(=O)Nc5ccc(C)cc5)cc4)csc23)cn1` (stereo unspecified), more than 10 µM. With `COc1cc(Nc2nccc(Nc3cc(C4CCCCC4)no3)n2)cc(OC)c1OC` the figure was more than 10 µM. With `CCNc1nc2cc(Cl)c(OC)cc2nc1NCC` the figure was more than 10 µM; with `N#C/C(=C\c1ccc(O)c(O)c1)C(=O)NCc1ccccc1`, more than 10 µM. With `CC(C)(C)OC(=O)n1cc(-c2cncn2C2CCCCC2)c2ccccc21`, the Ki was more than 10 µM. Turning to `Cc1nn(C)c2c1c(=O)c1cc(Cl)ccc1n2OCC(C)C`, the Ki is more than 10 µM. Regarding `N#Cc1ncc2nc1OCCCCCOc1cc(OCCCO)c(Cl)cc1NC(=O)N2`, the Ki was more than 10 µM.

Compound `Nc1ncc(-c2ccoc2)c2scc(-c3ccc(NC(=O)Nc4cccc(F)c4)cc3)c12` came in with a Ki of 6.31 µM. With `O=c1c(NCc2ccc(Cl)cc2)c(Nc2ccncc2)c1=O` the figure was 2 µM; with `Nc1n[nH]c2ccc(-c3nnn(Cc4ccccc4)c3I)cc12`, 0.0631 µM.

`N#CC1=C(N)n2c(s/c(=C\c3ccco3)c2=O)=C(C(N)=O)C1c1ccco1` (stereo unspecified) displayed a Ki of more than 10 µM. Compound `Cc1cccc(NC(=O)Nc2ccc(-c3cccc(C(N)=O)c3)cc2)c1` had a Ki of more than 10 µM. To `NC(=O)c1cccc(-c2cnc3[nH]cc(-c4ccccc4)c3c2)c1` belongs 0.126 µM; to `N#Cc1ccc(NC(=O)Nc2ccnc3cc(C(F)(F)F)ccc23)nc1`, more than 10 µM; to `Nc1n[nH]c2cc(-c3ccc(NC(=O)Nc4cccc(C(F)(F)F)c4)cc3)ccc12`, more than 10 µM. For `CCCOc1nc(NC(C)=O)cc(N)c1C#N`, the Ki was more than 10 µM. To `CN1CCN(c2cccc(Nc3nccc(-c4c(C(N)=O)nc5ccccn45)n3)c2)CC1` belongs more than 10 µM; to `Cc1n[nH]c2cccc(-c3ccc(NC(=O)Nc4cccc(C(F)(F)F)c4)cc3)c12`, more than 10 µM; to `CC(C)(CO)CNc1nccc(-c2c(-c3ccc(F)cc3)nc3c(CCN)nccn23)n1`, more than 10 µM. With `CNC(=O)COc1ccc(Nc2nc(Nc3ccc(C)c(S(N)(=O)=O)c3)ncc2F)cc1` the figure was more than 10 µM. In turn, `Cc1cccc(NC(=O)Nc2ccc(-c3csc4c(C#CCN5CCCC5)cnc(N)c34)cc2)c1` had a Ki of 5.01 µM. With `COc1cc2c(cc1F)C(c1ccccc1Cl)=Nc1c(n[nH]c1C)N2` the figure was 7.94 µM; with `CCCn1cc(-c2cnc(N)c3c(-c4ccc(NC(=O)Nc5cccc(F)c5)cc4)csc23)cn1`, more than 10 µM; with `O=c1c2c([nH]c3cc(-c4ccco4)nn13)CSC2`, more than 10 µM. Regarding `Cc1ccccc1NC(=O)Nc1ccc2c(c1)CCc1sc3ncnc(N)c3c1-2`, the Ki is more than 10 µM.

The compound `O=C1Nc2ccccc2Nc2nnccc21` yielded a Ki of more than 10 µM. Turning to `CCCS(=O)(=O)Nc1ccc(-c2ccc3[nH]nc(NC(C)=O)c3c2)cc1`, the inhibition constant Ki is more than 10 µM. To `Cc1c(C=O)c(O)n2c(nc3ccccc32)c1C#N` belongs more than 10 µM. To `Cc1cc(C)cc(NC(=O)Nc2ccc(-c3c(C)sc4ncnc(N)c34)cc2)c1` belongs 7.94 µM; to `CC(=O)N1CCC(Nc2nccc(-c3c(-c4ccc(F)cc4)nc4occn34)n2)CC1`, more than 10 µM; to `CCOc1ccccc1/C=N/NC(=O)c1nnn(-c2nonc2N)c1N1CCCC1`, more than 10 µM. To `O=C1NC(=O)C(c2cnc3ccccn23)=C1c1cn2c3c(cc(F)cc13)CN(C(=O)N1CCCCC1)CC2` belongs more than 10 µM; to `Cn1cncc1C(OCc1c(-c2ccc(OC(F)(F)F)cc2)cc(C#N)c(=O)n1C)c1ccc(C#N)cc1` (stereo unspecified), more than 10 µM.
